Data taken from patent US20080014186A1, “Hla-A24 or Hla-A2 Binding Peptides of Parathyroid Hormone-Related Protein” (GREEN PEPTIDE CO., LTD., priority 2004, published 2008).

Assays:
[1] = tested on: IgG in plasma of HLA-A2^+ healthy donors and prostate cancer patients; assay: Peptide-specific IgG in plasma by ELISA (HLA-A2-binding PTHrP peptides); design: species or system human; conditions: for IgG reactive to the peptide in plasma (difference of OD): 1:100-diluted plasma
Protocol: Peptide-specific IgG levels in the plasma were measured by ELISA, as previously reported. In brief, peptide (20 μg/well)-immobilized plates were blocked with Block Ace (Yukijirushi, Tokyo, Japan) and washed with 0.05% Tween20-PBS, after which 100 μl/well of plasma sample diluted with 0.05% Tween20-Block Ace was added to the plate. After 2 hours incubation at 37° C., the plates were washed and further incubated for 2 hours with a 1:1000-diluted rabbit anti-human IgG (γ-chain-specific) (DAKO, Glostrup, Denmark). The plates were washed, and then 100 μl of 1:100-diluted goat anti-rabbit IgG-conjugated horseradish peroxidase (EnVision, DAKO) was added to each well, and the plates were then incubated at room temperature for 40 min. After the plates were washed once, 100 μl/well of tetramethyl benzidine substrate solution (KPL, Guildford, UK) was added, and the reaction was stopped by the addition of 1 M phosphoric acid. The values are shown as optical density (OD) units/ml, and responses to the HIV peptide were subtracted. IgG reactive to a corresponding PTHrP peptide was judged to be positive when the difference of the OD in 1:100-diluted plasma exceeded 0.05. The results that IgG reactive to either the PTHrP102-111 or the […] peptide was detected in 8 of 10 healthy donors and in 7 of 10 prostate cancers are shown in Table 2 hereinafter.
In a similar way to Example 3, it was examined whether IgGs reactive to peptides of PTHrP 42-51 and PTHrP 59-67 could be detected in the plasma of 10 healthy donors and 10 cancer patients. The cut-off value at 1:100-diluted plasma was ODO.054.

[2] = tested on: PBMCs of HLA-A2^+ healthy donors and prostate cancer patients; assay: Assay for peptide-specific CTLs in PBMCs (IFN-γ ELISA, peptide-pulsed T2 cells); assay type: cell-based, human; conditions: for INF-γ production: T2 cells

IQDLRRRFFL [PTHrP 51-60]
IgG reactive to the peptide in plasma (difference of OD) ([1]; HLA-A2^+ healthy donor #1): 0.0945 OD | IgG reactive to the peptide in plasma (difference of OD) ([1]; HLA-A2^+ healthy donor #2): 0.1338 OD | IgG reactive to the peptide in plasma (difference of OD) ([1]; HLA-A2^+ healthy donor #3): — (IgG reactive to a corresponding peptide was judged to be positive when a difference of OD in a 1:100-diluted plasma was more than 0.054.) | IgG reactive to the peptide in plasma (difference of OD) ([1]; HLA-A2^+ healthy donor #4): — (IgG reactive to a corresponding peptide was judged to be positive when a difference of OD in a 1:100-diluted plasma was more than 0.054.) | IgG reactive to the peptide in plasma (difference of OD) ([1]; HLA-A2^+ healthy donor #5): — (IgG reactive to a corresponding peptide was judged to be positive when a difference of OD in a 1:100-diluted plasma was more than 0.054.) | IgG reactive to the peptide in plasma (difference of OD) ([1]; HLA-A2^+ healthy donor #6): — (IgG reactive to a corresponding peptide was judged to be positive when a difference of OD in a 1:100-diluted plasma was more than 0.054.) | IgG reactive to the peptide in plasma (difference of OD) ([1]; HLA-A2^+ healthy donor #7): 0.0675 OD | IgG reactive to the peptide in plasma (difference of OD) ([1]; HLA-A2^+ healthy donor #8): — (IgG reactive to a corresponding peptide was judged to be positive when a difference of OD in a 1:100-diluted plasma was more than 0.054.) | IgG reactive to the peptide in plasma (difference of OD) ([1]; HLA-A2^+ healthy donor #9): — (IgG reactive to a corresponding peptide was judged to be positive when a difference of OD in a 1:100-diluted plasma was more than 0.054.) | IgG reactive to the peptide in plasma (difference of OD) ([1]; HLA-A2^+ healthy donor #10): — (IgG reactive to a corresponding peptide was judged to be positive when a difference of OD in a 1:100-diluted plasma was more than 0.054.) | Total (IgG-positive donors / donors tested) ([1]; HLA-A2^+ healthy donors): 3/10 | IgG reactive to the peptide in plasma (difference of OD) ([1]; HLA-A2^+ prostate cancer patient #1): — (IgG reactive to a corresponding peptide was judged to be positive when a difference of OD in a 1:100-diluted plasma was more than 0.054.) | IgG reactive to the peptide in plasma (difference of OD) ([1]; HLA-A2^+ prostate cancer patient #2): — (IgG reactive to a corresponding peptide was judged to be positive when a difference of OD in a 1:100-diluted plasma was more than 0.054.) | IgG reactive to the peptide in plasma (difference of OD) ([1]; HLA-A2^+ prostate cancer patient #3): 0.0675 OD | IgG reactive to the peptide in plasma (difference of OD) ([1]; HLA-A2^+ prostate cancer patient #4): — (IgG reactive to a corresponding peptide was judged to be positive when a difference of OD in a 1:100-diluted plasma was more than 0.054.) | IgG reactive to the peptide in plasma (difference of OD) ([1]; HLA-A2^+ prostate cancer patient #5): — (IgG reactive to a corresponding peptide was judged to be positive when a difference of OD in a 1:100-diluted plasma was more than 0.054.) | IgG reactive to the peptide in plasma (difference of OD) ([1]; HLA-A2^+ prostate cancer patient #6): — (IgG reactive to a corresponding peptide was judged to be positive when a difference of OD in a 1:100-diluted plasma was more than 0.054.) | IgG reactive to the peptide in plasma (difference of OD) ([1]; HLA-A2^+ prostate cancer patient #7): — (IgG reactive to a corresponding peptide was judged to be positive when a difference of OD in a 1:100-diluted plasma was more than 0.054.) | IgG reactive to the peptide in plasma (difference of OD) ([1]; HLA-A2^+ prostate cancer patient #8): — (IgG reactive to a corresponding peptide was judged to be positive when a difference of OD in a 1:100-diluted plasma was more than 0.054.) | IgG reactive to the peptide in plasma (difference of OD) ([1]; HLA-A2^+ prostate cancer patient #9): — (IgG reactive to a corresponding peptide was judged to be positive when a difference of OD in a 1:100-diluted plasma was more than 0.054.) | IgG reactive to the peptide in plasma (difference of OD) ([1]; HLA-A2^+ prostate cancer patient #10): 0.0995 OD | Total (IgG-positive patients / patients tested) ([1]; HLA-A2^+ prostate cancer patients): 2/10 | INF-γ production ([2]; HLA-A2^+ healthy donor #1 (A0201)): 0 pg/mL | INF-γ production ([2]; HLA-A2^+ healthy donor #2 (A0201)): 79 pg/mL | INF-γ production ([2]; HLA-A2^+ healthy donor #3 (A0201)): 0 pg/mL | INF-γ production ([2]; HLA-A2^+ healthy donor #4 (A0201)): 314 pg/mL | INF-γ production ([2]; HLA-A2^+ healthy donor #5 (A0206)): 0 pg/mL | INF-γ production ([2]; HLA-A2^+ healthy donor #6 (A0206)): 46 pg/mL | INF-γ production ([2]; HLA-A2^+ healthy donor #7 (A0206)): 0 pg/mL | INF-γ production ([2]; HLA-A2^+ healthy donor #8 (A0206)): 16 pg/mL | INF-γ production ([2]; HLA-A2^+ healthy donor #9 (A0206)): 0 pg/mL | INF-γ production ([2]; HLA-A2^+ healthy donor #10 (A0207)): 14 pg/mL | Total (donors with significant peptide-specific IFN-γ production / donors tested) ([2]; HLA-A2^+ healthy donors, p < 0.05): 2/10 | INF-γ production ([2]; HLA-A2^+ prostate cancer patient #1 (A0206)): 55 pg/mL | INF-γ production ([2]; HLA-A2^+ prostate cancer patient #2 (A0210)): 187 pg/mL | INF-γ production ([2]; HLA-A2^+ prostate cancer patient #3 (A0210)): 34 pg/mL | INF-γ production ([2]; HLA-A2^+ prostate cancer patient #4 (A0206)): 33 pg/mL | INF-γ production ([2]; HLA-A2^+ prostate cancer patient #5 (A0206)): 0 pg/mL | INF-γ production ([2]; HLA-A2^+ prostate cancer patient #6 (A0207)): 0 pg/mL | INF-γ production ([2]; HLA-A2^+ prostate cancer patient #7 (A0206)): 0 pg/mL | INF-γ production ([2]; HLA-A2^+ prostate cancer patient #8 (A0206)): 2 pg/mL | INF-γ production ([2]; HLA-A2^+ prostate cancer patient #9 (A0201)): 67 pg/mL | INF-γ production ([2]; HLA-A2^+ prostate cancer patient #10 (A0201)): 21 pg/mL | Total (patients with significant peptide-specific IFN-γ production / patients tested) ([2]; HLA-A2^+ prostate cancer patients, p < 0.05): 2/10
